Data on four molecules can be found in patent publication US8753604B2, “Methods and compositions for synaphically-targeted treatment for cancer” (Sanford-Burnham Medical Research Institute, priority 2008, dated 2014).

For data set [1], the system named is PPC1 cells. Nature of the data set: Phage internalization assay in PPC1 cells. It counts as cell-based, human. The text has this:
Mice were maintained in accordance with institutional guidelines and the animal experiments were approved by the Animal Research Committees at University of California, Santa Barbara and San Francisco. transgenic tumor mice (Bardeesy and DePinho, (2002); Arbeit et al., Progressive squamous epithelial neoplasia in K14-human papillomavirus type 16 transgenic mice. J. Virol. 68, 4358-4368 (1994); Hanahan, Heritable formation of pancreatic β-cell tumors in transgenic mice expressing recombinant insulin/simian virus 40 oncogenes. Nature 315, 115-122 (1985)) and xenograft tumors generated by injecting BALB/c nude mice (Harlan Sprague Dawley, Indianapolis, Ind.) with 10^6 human cancer cells orthotopically, intracardiacly or into the brain and tibia were used. […] Phage homing studies in vivo and cell binding studies in vitro (Zhang et al., (2006)), immunofluorescence (Karmali et al. (2008)) and flow cytometry (Sugahara et al., Hyaluronan oligosaccharides induce CD44 cleavage and promote cell migration in CD44-expressing tumor cells. J. Biol. Chem. 278, 32259-32265 (2003)) were done as described. Whole body imaging was performed 3 hrs after injecting the Cy7-labelled micelles with the Odyssey Infrared Imaging System (LI-COR Biosciences, Lincoln, Nebr.). […] FAM-labeled peptides in tissues were quantified by measuring the fluorescence with Image J software. […]

The subject of data set [2] is tumors. Nature of the data set: In vivo peptide and phage homing (iRGD). The conditions noted are these: peptides 2 hrs, phage 15 min circulation.
Description: (§1) The peptides were allowed to circulate for 2 hrs and organs were collected and viewed under UV light (left panel) or white light (right panel). […] Fluorescence in each tissue was quantified with Image J software. Statistical analysis was performed with Student's t-test. […] The circulation time for the free peptides was 2 hrs, 15 min for the peptide-displaying phage, and 3 hrs for the peptide-coupled micelles. […] Representative fields from multiple sections of each of three tumors are shown.
(§2) Synthetic peptides labeled with fluorescein (Karmali et al. (2008)) (approximately 200 μg) were intravenously injected into tumor-bearing mice and allowed to circulate for 15 min to 2 hrs. Tissues were collected and observed under UV light (Illumatool Bright Light System LT-9900) or processed for immunofluorescence (Karmali et al. (2008)). To assess phage homing (Zhang et al., (2006)), 10^9 pfu of T7 phage were intravenously injected into tumor-bearing mice, and allowed to circulate for 15 min. The mice were perfused through the heart with PBS containing 1% BSA and tissues were harvested for immunofluorescence.
Data set [3] has as its system tumors. Particulars: mouse, in vivo.
Description: as §1, §2
In data set [4] the test system is mitochondrial membranes. The conditions noted are these: concentration of 10 μM; cited from earlier work.
Data set [5] deals with MDA-MB-435 cells. Nature of the data set: FACS analysis of FITC-peptide binding to siRNA-transfected MDA-MB-435 cells. Particulars: 10 μM FITC peptide, 1 h at 4° C. It counts as cell-based, human. How it is done: MDA-MB-435 cells were transiently transfected with gC1qR/p32-specific or control siRNAs. […] The amount of fluorescence in living cells was analyzed by FACS. Cells incubated in the absence of peptide served as FITC negative control. Compared to control siRNA transfected cells, down-regulation of gC1qR/p32 expression (in the presence of gC1qR/p32 siRNA) caused a shift in the peak of Lyp-1 fluorescence but not control peptide fluorescence.
Cultured cells were detached with cell enzyme-free dissociation buffer (Gibco/Invitrogen) and collected in PBS containing 1% BSA (PBSB). Single cells suspensions from tumors were obtained as indicated above. For FACS staining, 2.5×10^5 cells were resuspended in 100 μl of PBSB and incubated with polyclonal anti-full-length gC1qR/p32 or rabbit IgG (20 μg/ml) in PBSB for 30 min at 4° C. The cells were washed in PBSB and stained with goat anti rabbit Alexa 488 (2.5 μg/ml) for 30 min at 4° C. For FACS analysis of bound FITC-peptides, cultured cells were detached as above and incubated with 10 μM of FITC-peptides in 10% FCS/DMEM for 1 hour at 4° C. After washes with PBSB, the cells were resuspended in PBS containing 2 μg/ml of propidium iodide (PI, Molecular Probes/Invitrogen) to distinguish between live and dead cells, and 10,000 cells per sample were analyzed using a BD Biosciences FACSort.

Bridges are numbered along the chain shown (N, C = ends). Where no end group is shown, it is not given here. The star is where a group is joined. FITC = O=C1OC2(c3ccc(O)cc3Oc3cc(O)ccc32)c2ccc(NC(=S)*)cc21

Take “RGD-4C: RGD peptide (SEQ ID NO:41) with strong affinity for αv integrins (RGDCCCC; homing peptide)”: in data set [1], the “phage internalization within PPC1 cells” value is given as “nor did they internalize”. The “distribution within tumor (confocal microscopy)” value in data set [2] was “accumulated only in and around tumor blood vessels”.
In the case of `N=C(N)NCCC[C@@H]1NC(=O)[C@@H](N)CSSC[C@@H](C(=O)O)NC(=O)[C@H](CC(=O)O)NC(=O)[C@@H]2CCCN2C(=O)CNC(=O)[C@H](CCCCN)NC(=O)[C@H](CC(=O)O)NC(=O)CNC1=O` [iRGD], the “tumor homing over a control peptide” value in data set [3] stood at 12 fold.
On to D(KLAKLAK)2, for which the mitochondrial swelling entry in data set [4] is recorded as “marked mitochondrial swelling”.
Consider “FITC-LyP-1: FITC conjugated LyP-1 peptide ({FITC}-CGNKRTRGC; disulfide 1-9 (inferred); not fully specified (C-terminus))”, for which, in data set [5], the “FITC-peptide binding to cells after gC1qR/p32 siRNA versus control siRNA” value is given as “reduction in the binding”.
